Source: US20250380701A1, “HERBICIDAL COMBINATIONS AND A METHOD FOR CONTROLLING UNDESIRED VEGETATION” (UPL Mauritius Limited, priority 2022, published 2025)

Tested on: weedy Glycine max
Assay: Post-emergence herbicidal activity trial, efficacy on weedy Glycine max (Colby evaluation)
Type: in vivo
Procedure: The following products were used for testing the weed control efficacy of present herbicidal combinations.
Methodology: Trials were carried out to evaluate the efficacy of the combination of L-glufosinate ammonium (glufosinate-P-ammonium) and the additional herbicides on weedy Glycine max.
The soil used was sandy clay loam-sand: 68.0%; silt: 8.0%; clay: 24.0%.
All treatments were in 3 replications per treatment with a spray volume of about 150 L/ha.
The expected efficacy of a combination of L-glufosinate and the other herbicides was calculated using the well-established Colby method. Any difference between the observed and “expected” efficacy could be attributed to synergy between the two compounds.
In the Colby method, the expected (or predicted) response of a combination of herbicides is calculated by taking the product of the observed response for each individual component of the combination when applied alone, divided by 100, and subtracting this value from the sum of the observed response for each component when applied alone. An unexpected enhancement in efficacy of the combination is then determined by comparing the observed response of the combination to the expected (or predicted) response as calculated from the observed response of each individual component alone. If the observed response of the combination is greater than the expected (or predicted) response, or stated conversely, if the difference between the observed and expected response is greater than zero, then the combination is said to be synergistic or unexpectedly effective (Colby, S. R., Weeds, 1967(15), p. 20-22). The Colby method requires only a single dose of each herbicide applied alone and the mixture of both doses. The formula used to calculate the expected efficacy (EE) which was compared with the observed efficacy (OE) to determine the efficacy of the present disclosure is explained hereinbelow:
The expected efficacy for a combination of two active ingredients is as follows:
wherein, • A=Observed efficacy of active ingredient A at the same concentration as used in the mixture. • B=Observed efficacy of the active ingredient B at the same concentration as used in the mixture. • C=Observed efficacy of the active ingredient C at the same concentration as used in the mixture.
Experiments were conducted to assess the efficacy of the herbicidal combination comprising L-glufosinate ammonium and quizalofop-ethyl to control weedy Glycine max.
The percentage efficacy was calculated after 3, 28 and 35 days of applications (DAA). The target weed was Glycine max, and the concentration of the herbicide and the results are recorded in Table 2.
Experiments were conducted to assess the efficacy of the herbicidal combination comprising L-glufosinate ammonium and quizalofop-p-tefuryl to control the weedy Glycine max
The percentage efficacy was calculated after 3, 28 and 35 days of applications (DAA). The target weed was weedy Glycine max, and the concentration of the herbicide and the results are recorded in Table 3.

Which results are given for `CP(=O)(O)CC[C@H](N)C(=O)O.N` [L-glufosinate ammonium]?
Observed efficacy (%) of L-glufosinate ammonium (150 g a.i./ha) (Example 1 (Table 2), 3 DAA): 50%; Observed efficacy (%) of L-glufosinate ammonium (150 g a.i./ha) (Example 1 (Table 2), 28 DAA): 40%; Observed efficacy (%) of L-glufosinate ammonium (150 g a.i./ha) (Example 1 (Table 2), 35 DAA): 40%; Observed efficacy (%) of L-glufosinate ammonium (150 g a.i./ha) (Example 2 (Table 3), 3 DAA): 50%; Observed efficacy (%) of L-glufosinate ammonium (150 g a.i./ha) (Example 2 (Table 3), 28 DAA): 60%; Observed efficacy (%) of L-glufosinate ammonium (150 g a.i./ha) (Example 2 (Table 3), 35 DAA): 55%

Which results are given for `CCOC(=O)C(C)Oc1ccc(Oc2cnc3cc(Cl)ccc3n2)cc1` (stereo not drawn) [quizalofop-ethyl, Quizalofop-ethyl]?
Observed efficacy (%) of quizalofop-ethyl (25 g a.i./ha) (Example 1 (Table 2), 3 DAA): 0%; Observed efficacy (%) of quizalofop-ethyl (25 g a.i./ha) (Example 1 (Table 2), 28 DAA): 0%; Observed efficacy (%) of quizalofop-ethyl (25 g a.i./ha) (Example 1 (Table 2), 35 DAA): 0%

With `C[C@@H](Oc1ccc(Oc2cnc3cc(Cl)ccc3n2)cc1)C(=O)OCC1CCCO1` (stereo partly drawn) [quizalofop-p-tefuryl, Quizalofop-p-tefuryl] as the molecule, how does the “Observed efficacy (%) of quizalofop-p-tefuryl (25 g a.i./ha)” value (Example 2 (Table 3), 3 DAA) read?
The value was 0%.

And the “Observed efficacy (%) of quizalofop-p-tefuryl (25 g a.i./ha)” value (Example 2 (Table 3), 28 DAA)?
Its value is 0%.

And the “Observed efficacy (%) of quizalofop-p-tefuryl (25 g a.i./ha)” value (Example 2 (Table 3), 35 DAA)?
The value was 0%.
